Five cell lines from the supplement of paper PMC10307832 can be followed below.

Common to all, as to assay: relative viability (nuclei count vs DMSO), 5 days (fraction); higher = more cells survive
Compound in the experiment “NVP-TAE684 + Navitoclax”: COc1cc(N2CCC(N3CCN(C)CC3)CC2)ccc1Nc1ncc(Cl)c(Nc2ccccc2S(=O)(=O)C(C)C)n1 [NVP-TAE684] + CC1(C)CCC(c2ccc(Cl)cc2)=C(CN2CCN(c3ccc(C(=O)NS(=O)(=O)c4ccc(N[C@H](CCN5CCOCC5)CSc5ccccc5)c(S(=O)(=O)C(F)(F)F)c4)cc3)CC2)C1 [Navitoclax] (partner 0.5 µM)
The method, boiled down: (§1)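 Lung cancer cell lines were pin-tool dosed in 1536-well plates on the day after seeding, with either a lone drug or a fixed anchor-drug dose plus five library-drug doses (not always all listed) in √10 steps. Nuclei were counted on 4× images after 5 days. Relative viability is the ratio of treated-well to vehicle-well nuclei counts, with each value a median of duplicate plates.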

Compound in the experiment “Vandetanib + Crizotinib”: COc1cc2/c(=N/c3ccc(Br)cc3F)nc[nH]c2cc1OCC1CCN(C)CC1 [Vandetanib] + C[C@@H](Oc1cc(-c2cnn(C3CCNCC3)c2)cnc1N)c1c(Cl)ccc(F)c1Cl [Crizotinib] (partner 1 µM)
The method, boiled down:
as §1

Compound in the experiment “NVP-TAE684 + Crizotinib”: COc1cc(N2CCC(N3CCN(C)CC3)CC2)ccc1Nc1ncc(Cl)c(Nc2ccccc2S(=O)(=O)C(C)C)n1 [NVP-TAE684] + C[C@@H](Oc1cc(-c2cnn(C3CCNCC3)c2)cnc1N)c1c(Cl)ccc(F)c1Cl [Crizotinib] (partner 1 µM)
Summed up: as §1

Compound in the experiment “CUDC-101 + Bortezomib”: C#Cc1cccc(Nc2ncnc3cc(OC)c(OCCCCCCC(=O)NO)cc23)c1 [CUDC-101] + CC(C)C[C@H](NC(=O)[C@H](Cc1ccccc1)NC(=O)c1cnccn1)B(O)O [Bortezomib] (partner 0.002 µM)
Summed up: as §1

As to NCI-H838, the relative viability amounted to 1.43 with NVP-TAE684 + Navitoclax (first compound 0.2 µM); 1.09 in the experiment with NVP-TAE684 + Navitoclax (first compound 0.6325 µM); 0.403 in the experiment with NVP-TAE684 + Navitoclax (first compound 2 µM); 0.819 with Vandetanib + Crizotinib (first compound 0.02 µM); 0.846 with Vandetanib + Crizotinib (first compound 0.06325 µM); 0.898 with Vandetanib + Crizotinib (first compound 0.2 µM). For the same cell line, the relative viability with Vandetanib + Crizotinib (first compound 0.6325 µM) turned out to be 0.819; with Vandetanib + Crizotinib (first compound 2 µM), 0.724; with NVP-TAE684 + Crizotinib (first compound 0.2 µM) it was 0.962; in the experiment with NVP-TAE684 + Crizotinib (first compound 0.6325 µM), 0.78; with NVP-TAE684 + Crizotinib (first compound 2 µM), 0.522; with CUDC-101 + Bortezomib (first compound 0.01 µM), 0.872. Besides, the relative viability with CUDC-101 + Bortezomib (first compound 0.03162 µM) was found to be 0.728; with CUDC-101 + Bortezomib (first compound 0.1 µM), 0.879; in the experiment with CUDC-101 + Bortezomib (first compound 0.3162 µM), 1.25; in the experiment with CUDC-101 + Bortezomib (first compound 1 µM), 0.533.
Turning to NCI-H1299, the relative viability is 1.08 in the experiment with NVP-TAE684 + Navitoclax (first compound 0.2 µM); 1.05 with NVP-TAE684 + Navitoclax (first compound 0.6325 µM); 1.05 in the experiment with NVP-TAE684 + Navitoclax (first compound 2 µM); 0.932 with Vandetanib + Crizotinib (first compound 0.02 µM); 0.902 in the experiment with Vandetanib + Crizotinib (first compound 0.06325 µM); 0.927 in the experiment with Vandetanib + Crizotinib (first compound 0.2 µM). Also, the relative viability came to 0.967 with Vandetanib + Crizotinib (first compound 0.6325 µM); 0.95 with Vandetanib + Crizotinib (first compound 2 µM); 1.01 with NVP-TAE684 + Crizotinib (first compound 0.2 µM); 0.959 with NVP-TAE684 + Crizotinib (first compound 0.6325 µM); 0.623 in the experiment with NVP-TAE684 + Crizotinib (first compound 2 µM); 1.05 with CUDC-101 + Bortezomib (first compound 0.01 µM). Further, the relative viability with CUDC-101 + Bortezomib (first compound 0.03162 µM) worked out at 0.997; with CUDC-101 + Bortezomib (first compound 0.1 µM) it was 1.07; with CUDC-101 + Bortezomib (first compound 0.3162 µM), 1.05; in the experiment with CUDC-101 + Bortezomib (first compound 1 µM) it was 1.03.
With NCI-H1355, the relative viability in the experiment with NVP-TAE684 + Navitoclax (first compound 0.2 µM) was 0.882; with NVP-TAE684 + Navitoclax (first compound 0.6325 µM), 0.992; in the experiment with NVP-TAE684 + Navitoclax (first compound 2 µM), 0.622; with Vandetanib + Crizotinib (first compound 0.02 µM), 1.03; with Vandetanib + Crizotinib (first compound 0.06325 µM), 0.976; with Vandetanib + Crizotinib (first compound 0.2 µM), 0.637. Besides, the relative viability worked out at 0.996 with Vandetanib + Crizotinib (first compound 0.6325 µM); 1.04 with Vandetanib + Crizotinib (first compound 2 µM); 1.09 with NVP-TAE684 + Crizotinib (first compound 0.2 µM); 0.978 with NVP-TAE684 + Crizotinib (first compound 0.6325 µM); 0.568 with NVP-TAE684 + Crizotinib (first compound 2 µM); 1.31 with CUDC-101 + Bortezomib (first compound 0.01 µM). In addition, the relative viability with CUDC-101 + Bortezomib (first compound 0.03162 µM) is 1.17; with CUDC-101 + Bortezomib (first compound 0.1 µM) it was 1.24; in the experiment with CUDC-101 + Bortezomib (first compound 0.3162 µM), 1.18; in the experiment with CUDC-101 + Bortezomib (first compound 1 µM), 1.03.
Turning to NCI-H1437, the relative viability came out at 1.31 in the experiment with NVP-TAE684 + Navitoclax (first compound 0.2 µM); 1.12 with NVP-TAE684 + Navitoclax (first compound 0.6325 µM); 0.631 in the experiment with NVP-TAE684 + Navitoclax (first compound 2 µM); 0.842 with Vandetanib + Crizotinib (first compound 0.02 µM); 0.894 in the experiment with Vandetanib + Crizotinib (first compound 0.06325 µM); 0.895 with Vandetanib + Crizotinib (first compound 0.2 µM). For the same cell line, the relative viability is 0.958 with Vandetanib + Crizotinib (first compound 0.6325 µM); 0.954 with Vandetanib + Crizotinib (first compound 2 µM); 0.818 with NVP-TAE684 + Crizotinib (first compound 0.2 µM); 1.06 with NVP-TAE684 + Crizotinib (first compound 0.6325 µM); 0.795 with NVP-TAE684 + Crizotinib (first compound 2 µM); 0.547 with CUDC-101 + Bortezomib (first compound 0.01 µM). Moreover, the relative viability in the experiment with CUDC-101 + Bortezomib (first compound 0.03162 µM) was 0.483; with CUDC-101 + Bortezomib (first compound 0.1 µM) it was 0.398; in the experiment with CUDC-101 + Bortezomib (first compound 0.3162 µM), 0.693; with CUDC-101 + Bortezomib (first compound 1 µM) it was 0.284.
In the case of NCI-H1650, the relative viability with NVP-TAE684 + Navitoclax (first compound 0.6325 µM) came to 1.08; with NVP-TAE684 + Navitoclax (first compound 2 µM), 0.545; with Vandetanib + Crizotinib (first compound 0.02 µM) it was 0.943; in the experiment with Vandetanib + Crizotinib (first compound 0.06325 µM) it was 0.806; with Vandetanib + Crizotinib (first compound 0.6325 µM) it was 0.736; in the experiment with Vandetanib + Crizotinib (first compound 2 µM), 0.581. In addition, the relative viability with NVP-TAE684 + Crizotinib (first compound 0.2 µM) amounted to 0.899; with NVP-TAE684 + Crizotinib (first compound 0.6325 µM) it was 0.89; with NVP-TAE684 + Crizotinib (first compound 2 µM), 1; in the experiment with CUDC-101 + Bortezomib (first compound 0.01 µM), 0.179; in the experiment with CUDC-101 + Bortezomib (first compound 0.03162 µM), 0.216; with CUDC-101 + Bortezomib (first compound 0.1 µM), 0.202. For the same cell line, the relative viability came to 0.194 with CUDC-101 + Bortezomib (first compound 0.3162 µM) and 0.163 in the experiment with CUDC-101 + Bortezomib (first compound 1 µM).
